# pIC50: −log10 of the molar value. Read-outs that look alike come from different tables or passages of the source.
# Legend:
# KRas G12C = KRas G12C (Homo sapiens, UniProt P01116, C118S/C51S/C80L/G12C); assay: KRas G12C Modification Assay (LCMS detection of covalent adduct); assay type: binding; details: normalized percent of control; tested at 5 μM concentration for 3 hours
# Procedure, shortened: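 Cys-light KRas G12C mutant protein incubated with compound in K-Ras assay buffer, reactions quenched at set time points with 25 mM acetic acid and analysed by intact-protein LC/MS on a C-3 column. Deconvoluted mass heights expressed as percent of control (POC) relative to compound-free protein.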
# [1] = test system: NCI-H358 cells (express KRas G12C), Phospho-ERK; assay: Cellular inhibition of KRas G12C: Phospho-ERK in NCI-H358 cells; assay type: cell-based; details: Homo sapiens, pERK(Thr202/Tyr204) normalized with GAPDH, NCI-H358 cells, 3 hours, read-out: IC50
# Procedure, shortened: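 IC50 derived by 4-parameter fit of GAPDH-normalized pERK(Thr202/Tyr204) signal, as percent of DMSO control. Signal came from in-cell immunodetection with infrared secondaries after 3 h compound exposure of KRas G12C NCI-H358 cells at 0.5% DMSO.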
Structure (SMILES),POC (KRas G12C),"pIC50 ([1]; NCI-H358, 3 h)",pIC50 [1]
"C=CC(=O)N1CCN(c2nc(OC[C@@H]3CCCN3C)nc3c2CCN(c2cc(OC)cc4ccccc24)C3)C[C@@H]1CC#N [Example 314, 2-[(2S)-4-[7-(3-methoxy-1-naphthyl)-2-[[(2S)-1-methylpyrrolidin-2-yl]methoxy]-6,8-dihydro-5H-pyrido[3,4-d]pyrimidin-4-yl]-1-prop-2-enoyl-piperazin-2-yl]acetonitrile]",C (“C”>50% POC),6.00 to 10.00,–
"C=CC(=O)N1CCN(c2nc(OC[C@@H]3C[C@@H](O)CN3C)nc3c2CCN(c2cccc4ccccc24)C3)C[C@@H]1CC#N [Example 315, 2-[(2S)-4-[2-[[(2S,4R)-4-hydroxy-1-methyl-pyrrolidin-2-yl]methoxy]-7-(1-naphthyl)-6,8-dihydro-5H-pyrido[3,4-d]pyrimidin-4-yl]-1-prop-2-enoyl-piperazin-2-yl]acetonitrile]",C (“C”>50% POC),6.00 to 10.00,–
"C=CC(=O)N1CCN(c2nc(OC[C@@H]3CCCN3C)nc3c2CCN(c2ccc(F)c4ccccc24)C3)C[C@@H]1CC#N [Example 316, 2-((S)-1-acryloyl-4-(7-(4-fluoronaphthalen-1-yl)-2-(((S)-1-methylpyrrolidin-2-yl)methoxy)-5,6,7,8-tetrahydropyrido[3,4-d]pyrimidin-4-yl)piperazin-2-yl)acetonitrile]",C (“C”>50% POC),6.00 to 10.00,–
"C=CC(=O)N1CCN(c2nc(OC[C@@H]3CCCN3C)nc3c2CCN(c2cc(O)cc4ccccc24)C3)C[C@@H]1CC#N [Example 317, 2-((S)-1-acryloyl-4-(7-(3-hydroxynaphthalen-1-yl)-2-(((S)-1-methylpyrrolidin-2-yl)methoxy)-5,6,7,8-tetrahydropyrido[3,4-d]pyrimidin-4-yl)piperazin-2-yl)acetonitrile]",C (“C”>50% POC),6.00 to 10.00,–
"C=CC(=O)N1CCN(c2nc(OC[C@H]3CCCN3C)nc3c2CCN(c2ccc(F)c4ccccc24)C3)C[C@@H]1CC#N [Example 318, 2-[(2S)-4-[7-(4-fluoro-1-naphthyl)-2-[[(2R)-1-methylpyrrolidin-2-yl]methoxy]-6,8-dihydro-5H-pyrido[3,4-d]pyrimidin-4-yl]-1-prop-2-enoyl-piperazin-2-yl]acetonitrile]",C (“C”>50% POC),6.00 to 10.00,–
"C=CC(=O)N1CCN(c2nc(OC[C@@H]3CCCN3C(C)C)nc3c2CCN(c2cccc4ccccc24)C3)C[C@@H]1CC#N [Example 320, 2-[(2S)-4-[2-[[(2S)-1-isopropylpyrrolidin-2-yl]methoxy]-7-(1-naphthyl)-6,8-dihydro-5H-pyrido[3,4-d]pyrimidin-4-yl]-1-prop-2-enoyl-piperazin-2-yl]acetonitrile]",C (“C”>50% POC),6.00 to 10.00,–
"C=CC(=O)N1CCN(c2nc(OC[C@@H]3CCCN3C)nc3c2CCN(c2c(O)cccc2F)C3)[C@@H](C)C1 [Example 321, 1-[(3S)-4-[7-(2-fluoro-6-hydroxy-phenyl)-2-[[(2S)-1-methylpyrrolidin-2-yl]methoxy]-6,8-dihydro-5H-pyrido[3,4-d]pyrimidin-4-yl]-3-methyl-piperazin-1-yl]prop-2-en-1-one]",B (“B”>25% POC−≤50% POC),< 6.00,–
"C=CC(=O)N1CCN(c2nc(OC[C@@H]3CCCN3CC)nc3c2CCN(c2ccc(F)c4ccccc24)C3)CC1CC#N (stereo partly drawn) [Example 322, 2-(1-acryloyl-4-(2-(((S)-1-ethylpyrrolidin-2-yl)methoxy)-7-(4-fluoronaphthalen-1-yl)-5,6,7,8-tetrahydropyrido[3,4-d]pyrimidin-4-yl)piperazin-2-yl)acetonitrile]",C (“C”>50% POC),6.00 to 10.00,–
"C=CC(=O)N1CCN(c2nc(OC[C@H]3C[C@H](O)CN3C)nc3c2CCN(c2cccc4ccccc24)C3)C[C@@H]1CC#N [Example 323, 2-[(2S)-4-[2-[[(2R,4S)-4-hydroxy-1-methyl-pyrrolidin-2-yl]methoxy]-7-(1-naphthyl)-6,8-dihydro-5H-pyrido[3,4-d]pyrimidin-4-yl]-1-prop-2-enoyl-piperazin-2-yl]acetonitrile]",C (“C”>50% POC),6.00 to 10.00,–
"C=CC(=O)N1CCN(c2nc(OC[C@@H]3CCCN3C)nc3c2CCN(c2cccc4ccc(C)cc24)C3)C[C@@H]1CC#N [Example 326, 2-((S)-1-acryloyl-4-(7-(7-methylnaphthalen-1-yl)-2-(((S)-1-methylpyrrolidin-2-yl)methoxy)-5,6,7,8-tetrahydropyrido[3,4-d]pyrimidin-4-yl)piperazin-2-yl)acetonitrile]",C (“C”>50% POC),6.00 to 10.00,–
"C=CC(=O)N1CCN(c2nc(OC[C@@H]3C[C@@H](OC)CN3C)nc3c2CCN(c2cccc4ccccc24)C3)C[C@@H]1CC#N [Example 327, 2-((S)-1-acryloyl-4-(2-(((2S,4R)-4-methoxy-1-methylpyrrolidin-2-yl)methoxy)-7-(naphthalen-1-yl)-5,6,7,8-tetrahydropyrido[3,4-d]pyrimidin-4-yl)piperazin-2-yl)acetonitrile]",C (“C”>50% POC),6.00 to 10.00,–

# Continued, in another order:
POC (KRas G12C),Structure (SMILES),"pIC50 ([1]; NCI-H358, 3 h)",pIC50 [1]
C (“C”>50% POC),"C=CC(=O)N1CCN(c2nc(OC[C@@H]3C[C@@H](O)CN3C)nc3c2CCN(c2ccccc2C(F)(F)F)C3)CC1CC#N (stereo partly drawn) [Example 312, 2-[4-[2-[[(2S,4R)-4-hydroxy-1-methyl-pyrrolidin-2-yl]methoxy]-7-[2-(trifluoromethyl)phenyl]-6,8-dihydro-5H-pyrido[3,4-d]pyrimidin-4-yl]-1-prop-2-enoyl-piperazin-2-yl]acetonitrile]",6.00 to 10.00,–
C (“C”>50% POC),"C=CC(=O)N1CCN(c2nc(OC[C@@H]3CCN(C)C3)nc3c2CCN(c2c(C(F)(F)F)ccc4[nH]ncc24)C3)CC1CC#N (stereo partly drawn) [Example 313, 2-[4-[2-[[(3R)-1-methylpyrrolidin-3-yl]methoxy]-7-[5-(trifluoromethyl)-1H-indazol-4-yl]-6,8-dihydro-5H-pyrido[3,4-d]pyrimidin-4-yl]-1-prop-2-enoyl-piperazin-2-yl]acetonitrile]",–,6.00 to 10.00
C (“C”>50% POC),"C=CC(=O)N1CCN(c2nc(OC[C@H]3CCCN3C)nc3c2CCN(c2cccc(Cl)c2C(F)(F)F)C3)C[C@@H]1CC#N [Example 319, 2-((S)-1-acryloyl-4-(7-(3-chloro-2-(trifluoromethyl)phenyl)-2-(((R)-1-methylpyrrolidin-2-yl)methoxy)-5,6,7,8-tetrahydropyrido[3,4-d]pyrimidin-4-yl)piperazin-2-yl)acetonitrile]",6.00 to 10.00,–
C (“C”>50% POC),"C=CC(=O)N1CCN(c2nc(OC[C@@H]3CCCN3C)nc3c2CCN(c2cccc(OC)c2C)C3)C[C@@H]1CC#N [Example 324, 2-[(2S)-4-[7-(3-methoxy-2-methyl-phenyl)-2-[[(2S)-1-methylpyrrolidin-2-yl]methoxy]-6,8-dihydro-5H-pyrido[3,4-d]pyrimidin-4-yl]-1-prop-2-enoyl-piperazin-2-yl]acetonitrile]",6.00 to 10.00,–
C (“C”>50% POC),"C=CC(=O)N1CCN(c2nc(OC[C@@H]3CCCN3C)nc3c2CCN(c2ccccc2C#N)C3)C[C@@H]1CC#N [Example 325, 2-[4-[(3S)-3-(cyanomethyl)-4-prop-2-enoyl-piperazin-1-yl]-2-[[(2S)-1-methylpyrrolidin-2-yl]methoxy]-6,8-dihydro-5H-pyrido[3,4-d]pyrimidin-7-yl]benzonitrile]",< 6.00,–

# Reference: US10125134B2 (Mirati Therapeutics, Inc., priority 2016, dated 2018)
